± gives the expanded uncertainty stated by the source.

In the NIST ThermoML archive (doi:10.1016/j.tca.2017.10.004) one finds excess molar enthalpy data, which are given here for two molecules.

The data set can be described thus: excess molar enthalpy (molar enthalpy of mixing); xn = mol fraction of the nth substance listed. The conditions noted are these: 100 kPa, Liquid, Calvet calorimetry.

`[Zn]` [zinc] + [Ga]: the excess molar enthalpy runs as follows: (813 K, x1 = 0.9) 0.191 ± 0.143 kcal/mol; (1017 K, x1 = 0.0996) 0.12 ± 0.0478 kcal/mol; (1018 K, x1 = 0.5) 0.382 ± 0.0956 kcal/mol.

Consider `[Li]` [lithium] + [Zn], for which, where the note is “1006 K, x2 = 0.0993”, the excess molar enthalpy was -0.526 ± 0.287 kcal/mol.
